We go through eight compounds from ChEMBL document CHEMBL1201862, “PubChem BioAssay data set” (2004).

Assay in all cases: NCI tumour cell line growth inhibition, 48 h
Test [1] concerns CAKI-1.
Test [2] relates to HCT-116.
The subject of test [3] is KM12.
Test [4] concerns BT-549.
The test system of test [5] is OVCAR-4.
In test [6] the test system is SW-620.
Test [7] concerns OVCAR-3.
Test [8] concerns SF-268.
The subject of test [9] is MDA-MB-231.
Test [10] relates to HOP-92.
Test [11] deals with HCT-15.
In test [12] the test system is SNB-19.
Test [13] concerns PC-3.
In test [14] the test system is Hs-578T.
The subject of test [15] is NCI-H23.
Test [16] deals with NCI-H226.
The test system of test [17] is 786-0.
For test [18], the system named is IGROV-1.
Test [19] relates to MDA-N.
Test [20] deals with MOLT-4.

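Protocol summary: plate cells (96-well), add compound at 5 concentrations, incubate 48 h, interpolate endpoints linearly. Here, GI50 denotes the concentration required for 50% inhibition of growth.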 Active and inactive are the calls of the source. No stated cut-off is given here; in the data, active = GI50 up to about 1.1 µM and inactive = higher. A value given as a limit tells only on which side of the number the result lay.

Consider `Cn1cnc([N+](=O)[O-])c1SCC(=O)O`, for which the GI50 in [1], in test [2], in test [3], in [4], in [5] and in test [6] was > 100 µM (inactive) in each case. In addition, the GI50 in test [7] was > 100 µM (inactive); in test [8], > 100 µM (inactive); in [9] it was > 100 µM (inactive); in test [10] it was > 100 µM (inactive); in test [11], above 100 µM; in [12] it was > 100 µM (inactive). Further, the GI50 in [13], in test [14], in [15], in [16], in test [17] and in test [18] was > 100 µM (inactive) each time. Also, the GI50 in test [19] was > 100 µM (inactive).
As for `CCOC(=O)c1cccc(NC(=O)CBr)c1`, the GI50 is 0.618 µM (active) in [1]; 0.664 µM (active) in [2]; 1.79 µM (inactive) in [3]; 1.91 µM (inactive) in test [4]; 1.53 µM (inactive) in [5]; 0.361 µM (active) in [6]. Besides, the GI50 in [7] was 1.39 µM (inactive); in [9] it was 1.82 µM (inactive); in test [10], 1.93 µM (inactive); in test [11], 1.28 µM; in [12], 4.4 µM (inactive); in test [13] it was 1.55 µM (inactive). Besides, the GI50 in test [14] was 2.72 µM (inactive); in [15], 0.942 µM (active); in [20], 0.223 µM (active); in test [16], 0.76 µM (active); in [17], 0.22 µM (active); in test [18] it was 0.959 µM (active). Besides, in test [19], the GI50 is 1.4 µM (inactive).
For the compound `CC(C)(C)c1cc(C(C)(C)C)c(SSc2c(C(C)(C)C)cc(C(C)(C)C)c(O)c2O)c(O)c1O`, the GI50 in test [1] is 11.5 µM (inactive); in [2], 10.9 µM (inactive); in test [3], 12.6 µM (inactive); in test [4], 13.8 µM (inactive); in [5], 3.55 µM (inactive); in test [6], 4.99 µM (inactive). In addition, the GI50 was 10.1 µM (inactive) in test [8]; 14.7 µM (inactive) in test [9]; 17.7 µM (inactive) in test [10]; 6.19 µM in test [11]; 11.7 µM (inactive) in test [12]; 12.4 µM (inactive) in test [13]. The GI50 in test [14] was 10.5 µM (inactive); in test [15] it was 10.3 µM (inactive); in test [20], 2.67 µM (inactive); in test [16], 15 µM (inactive); in test [17], 6.4 µM (inactive); in test [18], 12 µM (inactive). Also, in test [19], the GI50 is 10.4 µM (inactive).
On to `CC1CC(C)CC(C)C(O)/C(C#N)=C/C=C/CC(C2CCCC2C(=O)O)OC(=O)CC(O)C(C)C1` (stereo not given), for which the GI50 in [1] was < 0.01 µM (active); in test [2], 0.0223 µM (active); in [4] it was 0.0143 µM (active); in test [5], 0.0424 µM (active); in [6], 0.0335 µM (active); in test [8] it was 0.0133 µM (active). The GI50 was < 0.0109 µM (active) in [9]; < 0.01 µM (active) in [10]; 0.0131 µM in test [11]; 0.0135 µM (active) in test [12]; 0.0251 µM (active) in [13]; < 0.01 µM (active) in [14]. In addition, the GI50 in test [20] was 0.022 µM (active); in test [16], 0.0158 µM (active); in test [17], < 0.0126 µM (active); in test [18], < 0.0118 µM (active); in test [19] it was < 0.0112 µM (active).
Consider `O=C(O)c1c(CC(Cc2ccc3c(c2)CCCC3)C(=O)O)ccc2c1CCCC2` (stereo not given), for which the GI50 in test [1], in [2], in [3], in test [4], in [6] and in test [7] was > 100 µM (inactive) throughout. The GI50 in test [8] is > 100 µM (inactive); in [9], > 100 µM (inactive); in [10], > 100 µM (inactive); in test [11], above 100 µM; in [12], > 100 µM (inactive); in [13], > 100 µM (inactive). Also, the GI50 in test [14], in [15], in test [20], in test [16], in test [17] and in test [18] was > 100 µM (inactive) in each case. Also, the GI50 in test [19] was > 100 µM (inactive).
On to `CN(CCc1ccccn1)c1ccc2c(c1)C(=O)c1ccccc1-2`, for which the GI50 in test [1] is > 100 µM (inactive); in test [2] it was > 100 µM (inactive); in [3], > 100 µM (inactive); in [4], 78.9 µM (inactive); in test [5] it was 69.5 µM (inactive); in [6] it was > 100 µM (inactive). The GI50 in [7] was > 100 µM (inactive); in [8], > 100 µM (inactive); in [9], > 100 µM (inactive); in test [10] it was 15.2 µM (inactive); in [11] it was 23 µM; in test [12] it was 88.9 µM (inactive). The GI50 in test [13] was > 100 µM (inactive); in test [14], 73.3 µM (inactive); in test [15], > 100 µM (inactive); in test [16], 40.6 µM (inactive); in test [17], 41.3 µM (inactive); in test [18] it was > 100 µM (inactive). In addition, in test [19], the GI50 was 64.9 µM (inactive).
In the case of `O=C(O)c1ccc(Nc2nc3ccccc3nc2-c2cccs2)cc1`, the GI50 is 63.5 µM (inactive) in test [1]; 94 µM (inactive) in test [2]; 64.1 µM (inactive) in [3]; 32.1 µM (inactive) in test [4]; 41.8 µM (inactive) in test [5]; > 100 µM (inactive) in test [6]. The GI50 in test [7] is > 100 µM (inactive); in [8], 82.2 µM (inactive); in test [9], > 100 µM (inactive); in test [10] it was 68.2 µM (inactive); in test [11] it was 68.7 µM; in test [13], > 100 µM (inactive). For the same compound, the GI50 in test [14] is 50.7 µM (inactive); in test [15], > 100 µM (inactive); in test [20], > 100 µM (inactive); in [16] it was > 100 µM (inactive); in test [17] it was 71.9 µM (inactive); in test [18], 73.5 µM (inactive). Moreover, in test [19], the GI50 is > 100 µM (inactive).
For `C[C@]12CC[C@@H]3c4cc(I)c(O)cc4CC[C@H]3[C@@H]1CC[C@@H]2O`, the GI50 in test [1] is 8.63 µM (inactive); in [3] it was 3.27 µM (inactive); in [4], 11.6 µM (inactive); in test [5], 16.5 µM (inactive); in test [6], 3.58 µM (inactive); in test [7], 3.43 µM (inactive). For the same compound, the GI50 is 9.38 µM (inactive) in test [8]; 5.25 µM (inactive) in test [9]; 10.3 µM (inactive) in test [10]; 2.48 µM in test [11]; 7.33 µM (inactive) in test [12]; 10.7 µM (inactive) in test [13]. Further, the GI50 in test [14] is 2.32 µM (inactive); in test [15] it was 9.89 µM (inactive); in test [20], 5.42 µM (inactive); in test [16] it was 15.5 µM (inactive); in [17] it was 5.06 µM (inactive); in test [18], 5.93 µM (inactive). In addition, the GI50 in test [19] is 1.74 µM (inactive).
